Assay results published in US4065461A, “Amino containing pyridyloxy propanols” (Aktieselskabet Grindstedvaerket, priority 1975, dated 1977).
Read-outs that look alike come from different tables or passages of the source.

Experiments:
β1 -receptors [1] = test: β1-adrenoreceptor blockade: antagonism of isoprenaline-induced changes in heart rate in anaesthetized cats; assay type: in vivo; settings: for ratio between these two activities (ED50 β2 / ED50 β1): anaesthetized cats, intravenous, Table I; for selectivity for β1 -receptors versus β2 -receptors, in words: conclusion from Table I
Description: (§1) The examinations thus comprise selective effect against isoprenaline-induced changes in heart rate, which are presumed to be elicited by stimulation of β1 -receptors; and against the reduction in tone in the peripheral vasculature induced by the said agonist is presumed to be due to stimulation of β2 -receptors.
(§2) The test animals were adult cats of either sex.
(§3) The heart rate was derived electronically from the blood pressure in the right carotid artery, and the reduction in tone in the peripheral vasculature was determined by recording changes in hind quarter vascular resistance.
(§4) Each cat was dosed repeatedly at 15 minutes' intervals throughout the experiment with 1 μg isoprenaline as the hydrochloride, the dose of this and the other standard drugs being stated in terms of the base. When constant responses of both heart rate and hind quarter perfusion pressure were obtained, a dose of 4 μg/kg of one of the test compounds was administered intraveneously 2 minutes before the isoprenaline dose. This initial dose of the test compound was administered again 15 minutes later. Thereafter, the test compound was administered at 15 minutes' intervals, each successive dose being twice the preceeding dose, the injection always being given two minutes prior to the next isoprenaline dose. […] In this way, cumulative dose-response curves for the effects of each test compound could be calculated and approximately ED50 values obtained.

β1 -receptors [2] = target: T1, β1 -receptors (Felis catus, UniProt Q9TST6); test: as above; assay type: in vivo; settings: for ED50: cat, read-out: Approximate ED50 value for β1 -receptor blockade; for potency as antagonist of the β1 -receptors relative to propranolol: compared with propranolol, Table I; for activity as antagonist of the β1 -receptors, in words: conclusion from Table I
T1 construct: The test animals were adult cats of either sex; from tissue; host or cells: heart of anaesthetized cat, in vivo
Description: as §1, §2, §3, §4

β2 -receptors = target: T2, β2 -receptors (Felis catus, UniProt Q9TST5); test: β2-adrenoreceptor blockade: antagonism of isoprenaline-induced reduction in tone in the peripheral vasculature (hind quarter perfusion pressure) in anaesthetized cats; assay type: in vivo; settings: cat, read-out: Approximate ED50 value for β2 -receptor blockade
T2 construct: The test animals were adult cats of either sex; from tissue; host or cells: hind quarter vasculature of anaesthetized cat, in vivo
Description: as §1, §2, §3, §4

in vivo = settings: mouse, iv
mice = settings: for toxicity, in words: conclusion from Table II
[3] = system: β1 -receptors and β2 -receptors; settings: background; cited from earlier work
[4] = anaesthetized cats, intravenous, cumulative doses, isoprenaline-induced change in heart rate
[5] = anaesthetized cats, intravenous, cumulative doses, isoprenaline-induced change in hind quarter perfusion pressure

T1 sequence (Q9TST6 whole entry): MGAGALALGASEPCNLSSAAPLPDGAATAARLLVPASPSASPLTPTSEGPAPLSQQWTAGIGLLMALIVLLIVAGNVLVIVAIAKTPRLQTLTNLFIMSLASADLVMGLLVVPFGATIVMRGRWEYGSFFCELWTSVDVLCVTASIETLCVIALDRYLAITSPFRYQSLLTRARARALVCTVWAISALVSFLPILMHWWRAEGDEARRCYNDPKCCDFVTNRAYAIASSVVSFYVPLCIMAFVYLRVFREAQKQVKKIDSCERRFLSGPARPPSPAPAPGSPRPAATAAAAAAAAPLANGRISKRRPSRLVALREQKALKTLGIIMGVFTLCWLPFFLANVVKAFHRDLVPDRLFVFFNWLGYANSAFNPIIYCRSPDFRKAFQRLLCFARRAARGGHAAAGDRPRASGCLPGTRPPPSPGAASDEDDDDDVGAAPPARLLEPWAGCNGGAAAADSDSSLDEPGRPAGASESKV
T2 sequence (Q9TST5 whole entry, the tested form may be a part): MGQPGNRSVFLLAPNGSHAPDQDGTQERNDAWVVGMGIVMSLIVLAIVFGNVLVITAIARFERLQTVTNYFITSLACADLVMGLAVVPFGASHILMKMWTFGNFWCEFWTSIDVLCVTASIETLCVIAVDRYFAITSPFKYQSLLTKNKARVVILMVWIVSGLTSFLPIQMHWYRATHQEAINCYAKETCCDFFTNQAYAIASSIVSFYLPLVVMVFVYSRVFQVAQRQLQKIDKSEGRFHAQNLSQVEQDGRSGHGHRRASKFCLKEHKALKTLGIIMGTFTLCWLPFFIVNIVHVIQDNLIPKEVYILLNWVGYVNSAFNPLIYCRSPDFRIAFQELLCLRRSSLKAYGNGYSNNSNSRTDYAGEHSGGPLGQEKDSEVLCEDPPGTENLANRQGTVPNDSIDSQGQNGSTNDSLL

Row | Compound | ratio between these two activities (ED50 β2 / ED50 β1) (β1 -receptors [1]) | selectivity for β1 -receptors versus β2 -receptors, in words (β1 -receptors [1]) | ED50 (β1 -receptors [2]; iv) [mg/kg] | potency as antagonist of the β1 -receptors relative to propranolol (β1 -receptors [2]) | activity as antagonist of the β1 -receptors, in words (β1 -receptors [2]) | ED50 (β2 -receptors; iv) [mg/kg] | LD50 (in vivo) [mg/kg] | toxicity, in words (mice; intravenous, mice) | LD50 (mice; mice, female, intravenous) [mg/kg] | ED50 (β1 -receptors [2]; [4]) [mg/kg] | ED50 (β2 -receptors; [5]) [mg/kg] | LD50 (mice; mouse, in vivo, iv) [mg/kg] | receptor blocking profile, in words [3]
1 | CC(C)NCC(O)COc1cccnc1 (centres unmarked) [Compound 1, 1-Isopropylamino-3-(3-pyridyloxy)-2-propanol] | 207.1 | outstanding selectivity as β1 -adrenoblocking agent | 0.007 | greater than | extremely active | 1.45 | 261 | low toxicity | 285.2 | – | – | – | –
2 | CC(C)NCC(O)COc1cccnc1N (centres unmarked) [Compound 2, 1-Isopropylamino-3-[(2-amino-3-pyridyl)oxy]-2-propanol] | 43.8 | high degree of selectivity | – | approximately equal to | – | – | 203 | somewhat less toxic | – | 0.08 | 3.5 | 192.0 | –
3 | CC(=O)Nc1ccc(OCC(O)CNC(C)C)cc1 (centres unmarked) [Compound 3, practolol] | 28.9 | approximately thirty times more selectivity against the β1 -receptors than against β2 -receptors | – | much less active than propranolol | – | – | 41.6 | – | – | 0.36 | 10.4 | 31.6 | substantial blocking activity on the β1 -receptors and not on the β2 -receptors
4 | CC(C)NCC(O)COc1cccc2ccccc12 (centres unmarked) [Compound 4, 1-(isopropylamino)-3-(1-naphthyloxy)-2-propanol] | – | – | – | – | – | – | – | – | – | – | – | – | act more or less indiscriminately on both types of β-receptors
5 | Cc1ccc(OCC(O)CNC(C)C)cn1 (centres unmarked) [Compound 5] | > 5.8 | rather low degree of selectivity | 0.7 | – | not very active | > 4.1 | 285 | – | 239.4 | – | – | – | –
6 | CC(C)NCC(O)COc1cccnc1Cl (centres unmarked) [Compound 6] | 45.0 | – | 0.03 | – | – | 1.35 | 165 | – | 180.2 | – | – | – | –
